Experimental data as given in patent US20230085307A1, “PYRIDAZINONE COMPOUND AND HERBICIDE” (NISSAN CHEMICAL CORPORATION, priority 2019, published 2023).

Assays:
false cleavers = experiment: Test Example 4: herbicidal effect by soil treatment (Table 19, symbol Q); assay type: in vivo, false cleavers (Galium spurium)
Outline: (§1)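 Emulsion of test compound, water-diluted to predetermined amount, sprayed on soil after sowing (seed depth ~1.5 cm, sterilized diluvial soil). Greenhouse, 25–30° C. Effect graded at three weeks post-spray.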

transplanted rice = experiment: Test Example 1: effect on crop, application before weed generation under submerged conditions (Table 16, symbol a); assay type: in vivo; settings: amount of applied herbicide 320 g/ha
Outline: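 Submerged Wagner pots (alluvial soil, 4 cm water) sown with weed seeds and planted with 2.5-leaf rice seedlings; emulsifiable concentrate diluted in water applied to water surface on sowing day. Held in greenhouse at 25-30 °C; injury scored 0-5 by herbicidal rate after three weeks.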

directly sowed rice = experiment: Test Example 3: effect on crop by foliage application, Wagner pot (Table 18, symbol b); assay type: in vivo; settings: amount of applied herbicide 320 g/ha
Outline: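 Plants were sown in alluvial soil held under 0.1–0.5 cm standing water and grown 14 days in a greenhouse at 25–30 °C. An emulsifiable formulation, water-diluted to the set dose, was then sprayed onto the foliage, and effects were scored three weeks later using previously defined criteria.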

corn [1] = experiment: Test Example 4: effect on crop by soil treatment (Table 19, symbol c); assay type: in vivo; settings: amount of applied herbicide 320 g/ha
Outline: as §1

soybean [2] = experiment: Test Example 4: effect on crop by soil treatment (Table 19, symbol d); assay type: in vivo; settings: amount of applied herbicide 320 g/ha
Outline: as §1

wheat [3] = experiment: Test Example 4: effect on crop by soil treatment (Table 19, symbol e); assay type: in vivo; settings: amount of applied herbicide 320 g/ha
Outline: as §1

beet [4] = experiment: Test Example 4: effect on crop by soil treatment (Table 19, symbol f); assay type: in vivo; settings: amount of applied herbicide 320 g/ha
Outline: as §1

rapeseed [5] = experiment: Test Example 4: effect on crop by soil treatment (Table 19, symbol g); assay type: in vivo; settings: amount of applied herbicide 320 g/ha
Outline: as §1

corn [6] = experiment: Test Example 5: effect on crop by foliage application, plastic box (Table 20, symbol c); assay type: in vivo; settings: 320 g/ha, three weeks after application
Outline: (§2)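 Post-emergence foliar test in sterilized diluvial soil. Compound applied as water-diluted emulsion at a predetermined rate to 14-day-old plants; evaluation at three weeks.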

soybean [7] = experiment: Test Example 5: effect on crop by foliage application, plastic box (Table 20, symbol d); assay type: in vivo; settings: 320 g/ha, three weeks after application
Outline: as §2

wheat [8] = experiment: Test Example 5: effect on crop by foliage application, plastic box (Table 20, symbol e); assay type: in vivo; settings: 320 g/ha, three weeks after application
Outline: as §2

beet [9] = experiment: Test Example 5: effect on crop by foliage application, plastic box (Table 20, symbol f); assay type: in vivo; settings: 320 g/ha, three weeks after application
Outline: as §2

rapeseed [10] = experiment: Test Example 5: effect on crop by foliage application, plastic box (Table 20, symbol g); assay type: in vivo; settings: 320 g/ha, three weeks after application
Outline: as §2

[11] = amount of applied herbicide 320 g/ha

Row | Structure (SMILES) | Q: false cleavers, herbicidal effect grade (false cleavers; [11]) | herbicidal effect, Q: false cleavers (false cleavers; [11]) | other results
1 | CCCC(=O)Oc1c(C)nn(C)c(=O)c1-c1c(-c2ccccc2)sc2cc(OC)ccc12 [3-062] | 2 (Herbicidal rate of 20% or more and less than 40%) |  | 
2 | CCCC(=O)Oc1c(C)nn(C)c(=O)c1-c1c(-c2ccccc2OC)sc2cc(OC)ccc12 [Compound No. 3-066, 5-(6-methoxy-2-(2-methoxyphenyl)benzo[b]thiophen-3-yl)-1,3-dimethyl-6-oxo-1,6-dihydropyridazin-4-yl=(n-butyrate)] |  |  | Q: false cleavers, herbicidal effect grade (false cleavers; amount of applied herbicide 296 g/ha): 2 (Herbicidal rate of 20% or more and less than 40%)
3 | CCCC(=O)Oc1c(C)nn(C)c(=O)c1-c1c(-c2ccc3c(c2)OCCO3)sc2cc(F)ccc12 [3-014] |  | 2 (Herbicidal rate of 20% or more and less than 40%) | 
4 | CCCC(=O)Oc1c(C)nn(C)c(=O)c1-c1c(-c2ccc(F)cc2OC)sc2cc(OC)ccc12 [3-077] | 2 (Herbicidal rate of 20% or more and less than 40%) |  | 
5 | CCOc1ccc(-c2sc3cc(OC)ccc3c2-c2c(O)c(C)nn(C)c2=O)cc1 [3-072] | 1 (Herbicidal rate of 5% or more and less than 20%) |  | 
6 | COc1cc(F)ccc1-c1sc2cc(F)ccc2c1-c1c(O)c(C)nn(C)c1=O [3-009] |  | 5 (Herbicidal rate of 90% or more (almost completely withered)) | 
7 | CCOc1cc(F)ccc1-c1sc2cc(C)ccc2c1-c1c(O)c(C)nn(C)c1=O [3-057] | 3 (Herbicidal rate of 40% or more and less than 70%) |  | 
8 | CCCC(=O)Oc1c(C)nn(C)c(=O)c1-c1c(-c2ccc(F)cc2OCC)sc2cc(C)ccc12 [3-058] | 1 (Herbicidal rate of 5% or more and less than 20%) |  | 
9 | Cc1nn(C)c(=O)c(-c2c(-c3ccc(Cl)cc3)sc3c(C)cccc23)c1O [4-102] |  |  | Herbicidal effect by soil treatment, Q: false cleavers (false cleavers; [11]): 0 (Herbicidal rate of 5% or less (almost no effect))
10 | CCCC(=O)Oc1c(C)nn(C)c(=O)c1-c1c(-c2ccc(F)cc2OC)sc2cc(F)ccc12 [3-010] |  | 5 (Herbicidal rate of 90% or more (almost completely withered)) | 
11 | CCCC(=O)Oc1c(C)nn(C)c(=O)c1-c1c(-c2ccccc2OC)sc2cc(OCC)ccc12 [3-090] |  |  | Q: false cleavers, herbicidal effect grade (false cleavers; amount of applied herbicide 310 g/ha): 5 (Herbicidal rate of 90% or more (almost completely withered))
12 | CCCC(=O)Oc1c(C)nn(C)c(=O)c1-c1c(-c2ccc(OC)cc2)sc2cc(OC)ccc12 [3-069] | 0 (Herbicidal rate of 5% or less (almost no effect)) |  | 
13 | COc1ccc(-c2oc3ccc(F)cc3c2-c2c(O)c(C)nn(C)c2=O)cc1 [Compound No. 9-020, 4-(5-fluoro-2-(4-methoxyphenyl)benzofuran-3-yl)-5-hydroxy-2,6-dimethylpyridazin-3(2H)-one] |  |  | Effect on crop, a: transplanted rice (transplanted rice): 0 (Herbicidal rate of 5% or less (almost no effect)); Effect on crop b (directly sowed rice), foliage application (directly sowed rice): 0 (Herbicidal rate of 5% or less (almost no effect)); c: corn, effect on crop grade (corn [1]): 0 (Herbicidal rate of 5% or less (almost no effect)); d: soybean, effect on crop grade (soybean [2]): 0 (Herbicidal rate of 5% or less (almost no effect)); e: wheat, effect on crop grade (wheat [3]): 2 (Herbicidal rate of 20% or more and less than 40%); f: beet, effect on crop grade (beet [4]): 4 (Herbicidal rate of 70% or more and less than 90%); g: rapeseed, effect on crop grade (rapeseed [5]): 5 (Herbicidal rate of 90% or more (almost completely withered)); effect on crop corn (c) (corn [6]): 0 (Herbicidal rate of 5% or less (almost no effect)); effect on crop soybean (d) (soybean [7]): 3 (Herbicidal rate of 40% or more and less than 70%); effect on crop wheat (e) (wheat [8]): 3 (Herbicidal rate of 40% or more and less than 70%); effect on crop beet (f) (beet [9]): 5 (Herbicidal rate of 90% or more (almost completely withered)); effect on crop rapeseed (g) (rapeseed [10]): 5 (Herbicidal rate of 90% or more (almost completely withered)); melting point: 248 to 250 °C
14 | CCOc1ccc2c(-c3c(O)c(C)nn(C)c3=O)c(-c3ccc(OC)cc3)sc2c1 [3-091] | 5 (Herbicidal rate of 90% or more (almost completely withered)) |  | 
15 | CCOc1cc(F)ccc1-c1sc2cc(F)ccc2c1-c1c(O)c(C)nn(C)c1=O [3-011] |  | 5 (Herbicidal rate of 90% or more (almost completely withered)) | 
16 | Cc1nn(C)c(=O)c(-c2c(-c3ccc4c(c3)OCCO4)sc3cc(F)ccc23)c1O [3-013] |  | 4 (Herbicidal rate of 70% or more and less than 90%) | 

Row | Structure (SMILES) | Q: false cleavers, herbicidal effect grade (false cleavers; [11]) | herbicidal effect, Q: false cleavers (false cleavers; [11]) | other results
17 | CCOc1ccccc1-c1sc2cc(C)ccc2c1-c1c(O)c(C)nn(C)c1=O [3-053] | 5 (Herbicidal rate of 90% or more (almost completely withered)) |  | 
18 | CCOc1ccccc1-c1sc2cc(F)ccc2c1-c1c(O)c(C)nn(C)c1=O [3-006] |  | 5 (Herbicidal rate of 90% or more (almost completely withered)) | 
19 | Cc1nn(C)c(=O)c(-c2c(-c3ccc(Cl)c(F)c3)sc3c(F)cccc23)c1O [4-054] |  |  | Herbicidal effect by soil treatment, Q: false cleavers (false cleavers; [11]): 0 (Herbicidal rate of 5% or less (almost no effect))
20 | Cc1nn(C)c(=O)c(-c2c(-c3ccc4c(c3)OCCO4)oc3ccccc23)c1O [8-002] | 0 (Herbicidal rate of 5% or less (almost no effect)) |  | 
21 | Cc1nn(C)c(=O)c(-c2c(-c3ccc(OC(C)C)cc3)oc3ccc(F)cc23)c1O [9-025] | 0 (Herbicidal rate of 5% or less (almost no effect)) |  | 
22 | CCCC(=O)Oc1c(C)nn(C)c(=O)c1-c1c(-c2ccc(OC)cc2)sc2cc(OCC)ccc12 [3-092] | 4 (Herbicidal rate of 70% or more and less than 90%) |  | 
23 | Cc1nn(C)c(=O)c(-c2c(-c3ccc(Cl)cc3)sc3cccc(F)c23)c1O [11-001] | 0 (Herbicidal rate of 5% or less (almost no effect)) |  | 
24 | CCCC(=O)Oc1c(C)nn(C)c(=O)c1-c1c(-c2ccc(OC)cc2)sc2cc(F)ccc12 [3-008] |  | 2 (Herbicidal rate of 20% or more and less than 40%) | 
25 | CCCC(=O)Oc1c(C)nn(C)c(=O)c1-c1c(-c2ccc(F)cc2OCC)sc2cc(F)ccc12 [3-012] |  | 5 (Herbicidal rate of 90% or more (almost completely withered)) | 
26 | CCOc1ccccc1-c1sc2cc(OC)ccc2c1-c1c(O)c(C)nn(CC)c1=O [3-085] | 0 (Herbicidal rate of 5% or less (almost no effect)) |  | 
27 | Cc1nn(C)c(=O)c(-c2c(-c3ccc(OCC(C)C)cc3)oc3ccc(F)cc23)c1O [9-027] | 0 (Herbicidal rate of 5% or less (almost no effect)) |  | 
28 | COc1ccccc1-c1sc2cc(F)ccc2c1-c1c(O)c(C)nn(C)c1=O [3-003] |  | 4 (Herbicidal rate of 70% or more and less than 90%) | 
29 | CSc1ccc(-c2oc3ccc(C)cc3c2-c2c(O)c(C)nn(C)c2=O)cc1 [9-055] | 0 (Herbicidal rate of 5% or less (almost no effect)) |  | 
30 | COc1ccc2c(-c3c(O)c(C)nn(C)c3=O)c(-c3ccc(F)cc3OC)sc2c1 [3-076] | 4 (Herbicidal rate of 70% or more and less than 90%) |  | 
31 | CCOc1ccc2c(-c3c(O)c(C)nn(C)c3=O)c(-c3ccc(F)cc3OCC)sc2c1 [3-095] | 4 (Herbicidal rate of 70% or more and less than 90%) |  | 
32 | CCCC(=O)Oc1c(C)nn(C)c(=O)c1-c1c(-c2ccc(F)cc2)sc2cc(F)ccc12 [3-002] |  | 1 (Herbicidal rate of 5% or more and less than 20%) | 
